{"source": "patent EP4692081A1", "about": "“PREPARATION METHOD FOR NAPHTHOISOXAZOLE COMPOUND” (priority 2023, dated 2024)", "type_in_all_cases": "cell-based", "key": {"IKZF1": {"biological_target": "T1, IKZF1 (Homo sapiens, UniProt Q13422+Q96SW2)", "T1 construct": "expression levels of IKZF1 and IKZF3 proteins in MM.1S cells; host or cells: MM.1S cells", "T1 sequence (Q13422 whole entry)": "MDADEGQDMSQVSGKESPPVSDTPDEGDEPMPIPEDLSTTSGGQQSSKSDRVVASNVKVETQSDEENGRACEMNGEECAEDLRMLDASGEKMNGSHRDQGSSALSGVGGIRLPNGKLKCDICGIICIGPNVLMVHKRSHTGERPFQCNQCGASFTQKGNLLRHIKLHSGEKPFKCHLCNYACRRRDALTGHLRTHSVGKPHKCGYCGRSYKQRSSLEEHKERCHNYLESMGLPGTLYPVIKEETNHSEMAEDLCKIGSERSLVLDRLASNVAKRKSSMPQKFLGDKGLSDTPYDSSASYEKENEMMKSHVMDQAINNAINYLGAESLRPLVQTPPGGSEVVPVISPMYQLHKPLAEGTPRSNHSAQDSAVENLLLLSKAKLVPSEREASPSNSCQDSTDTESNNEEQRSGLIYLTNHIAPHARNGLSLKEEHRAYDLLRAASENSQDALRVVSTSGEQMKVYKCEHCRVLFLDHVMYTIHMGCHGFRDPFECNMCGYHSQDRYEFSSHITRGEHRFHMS", "T1 sequence (Q96SW2 whole entry)": "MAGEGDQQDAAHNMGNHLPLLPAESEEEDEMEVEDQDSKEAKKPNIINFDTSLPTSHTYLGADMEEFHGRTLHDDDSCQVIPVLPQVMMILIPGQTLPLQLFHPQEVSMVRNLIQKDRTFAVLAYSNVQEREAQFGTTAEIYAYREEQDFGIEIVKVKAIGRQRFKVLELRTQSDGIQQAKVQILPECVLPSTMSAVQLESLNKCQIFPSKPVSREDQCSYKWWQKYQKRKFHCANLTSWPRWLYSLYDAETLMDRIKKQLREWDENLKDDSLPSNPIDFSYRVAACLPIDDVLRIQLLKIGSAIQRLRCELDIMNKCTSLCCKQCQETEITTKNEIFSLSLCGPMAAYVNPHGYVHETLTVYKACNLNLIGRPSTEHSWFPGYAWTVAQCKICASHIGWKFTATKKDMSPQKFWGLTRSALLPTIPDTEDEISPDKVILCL", "T1 sequence (Q16531 whole entry partner)": "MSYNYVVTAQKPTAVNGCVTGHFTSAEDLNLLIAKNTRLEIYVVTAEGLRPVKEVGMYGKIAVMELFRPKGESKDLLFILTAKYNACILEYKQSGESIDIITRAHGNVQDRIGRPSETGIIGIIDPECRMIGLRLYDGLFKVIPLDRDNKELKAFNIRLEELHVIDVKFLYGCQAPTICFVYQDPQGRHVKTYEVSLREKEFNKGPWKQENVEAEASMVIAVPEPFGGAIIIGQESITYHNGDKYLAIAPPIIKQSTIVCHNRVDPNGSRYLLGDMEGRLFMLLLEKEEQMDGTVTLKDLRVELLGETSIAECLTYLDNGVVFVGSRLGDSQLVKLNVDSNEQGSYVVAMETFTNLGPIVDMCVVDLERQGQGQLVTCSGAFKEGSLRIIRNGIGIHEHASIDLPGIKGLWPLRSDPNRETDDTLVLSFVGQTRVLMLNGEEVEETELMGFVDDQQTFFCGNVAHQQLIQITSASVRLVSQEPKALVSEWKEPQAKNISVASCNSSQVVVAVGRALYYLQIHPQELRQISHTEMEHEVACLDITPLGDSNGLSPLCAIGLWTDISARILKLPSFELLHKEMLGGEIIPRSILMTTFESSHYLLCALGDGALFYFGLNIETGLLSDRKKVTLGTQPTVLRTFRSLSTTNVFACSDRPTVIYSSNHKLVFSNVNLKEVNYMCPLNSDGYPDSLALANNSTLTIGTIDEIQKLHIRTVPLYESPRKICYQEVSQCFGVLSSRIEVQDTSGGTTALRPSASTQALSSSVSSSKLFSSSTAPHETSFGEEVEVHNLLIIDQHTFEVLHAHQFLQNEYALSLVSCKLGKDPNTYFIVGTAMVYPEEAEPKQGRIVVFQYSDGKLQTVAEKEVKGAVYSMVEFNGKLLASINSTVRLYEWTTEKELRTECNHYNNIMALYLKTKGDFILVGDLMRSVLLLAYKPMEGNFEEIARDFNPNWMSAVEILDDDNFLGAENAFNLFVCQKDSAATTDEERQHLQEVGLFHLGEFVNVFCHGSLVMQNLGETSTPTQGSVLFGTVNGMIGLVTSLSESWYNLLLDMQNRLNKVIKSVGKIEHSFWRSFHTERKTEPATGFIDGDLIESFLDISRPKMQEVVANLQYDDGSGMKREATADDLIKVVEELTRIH", "assay": "In cell western analysis of IKZF1 protein expression level in MM.1S cells", "conditions": "IKZF 1, MM.1S cells, 24 hours", "description": "(§1) Objective: The experiment was conducted to evaluate the degradation effects of test compounds on IKZF1 and IKZF3 proteins in MM.1S cells by detecting their impact on the expression levels of IKZF1 and IKZF3 proteins in MM.1S cells.\n(§2) Cell line: MM.1S cell (obtained from ATCC; Cat. No. CRL-2974)\n(§3) Negative control: 0.1% DMSO Table 4. Reagents and consumables\n(§4) Experimental scheme: • 1) MM.1S cells in the logarithmic growth phase were seeded into a 96-well plate at 1.2 × 10^5 cells per well and cultured overnight. • 2) On the second day, drug treatment was initiated with a starting concentration of 300 nM, followed by a 3-fold dilution in triplicate wells, with 10 concentration gradients (containing DMSO), and incubated for 24 hours in a culture incubator. • 3) The mixture was centrifuged, and the cell supernatant was carefully removed. […]\n(§5) GraphPad Prism 6 software was utilized to fit the curve with the inhibition rate data, and the DC50 value was calculated."}, "IRAK4": {"biological_target": "T2, IRAK4 (Homo sapiens, UniProt Q9NWZ3)", "T2 construct": "expressed in transfected cells; host or cells: K562 IRAK4-HiBiT cells", "T2 sequence (Q9NWZ3 1-460)": "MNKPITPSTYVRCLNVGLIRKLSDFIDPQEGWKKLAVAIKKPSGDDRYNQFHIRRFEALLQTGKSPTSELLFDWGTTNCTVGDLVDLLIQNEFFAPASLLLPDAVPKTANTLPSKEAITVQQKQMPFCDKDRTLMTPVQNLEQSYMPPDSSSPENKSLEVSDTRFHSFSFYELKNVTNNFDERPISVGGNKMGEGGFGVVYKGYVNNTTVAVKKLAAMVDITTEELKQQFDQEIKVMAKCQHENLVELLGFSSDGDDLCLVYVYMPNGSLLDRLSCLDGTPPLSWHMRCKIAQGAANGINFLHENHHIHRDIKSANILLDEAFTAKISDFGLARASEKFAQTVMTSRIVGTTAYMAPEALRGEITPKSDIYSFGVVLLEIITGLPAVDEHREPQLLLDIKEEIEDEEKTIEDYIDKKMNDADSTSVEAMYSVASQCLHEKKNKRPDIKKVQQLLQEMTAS", "assay": "Target protein degradation effect in K562 IRAK4-HiBiT cells (Nano-Glo HiBiT luminescence)", "conditions": "incubated 16 to 18 hours", "description": "Objective: In this experiment, the degradation effect of the test compound on the target protein IRAK4 in K562 IRAK4-HiBiT cells was detected.\nCells: K562 IRAK4-HiBiT cells [formula]\nPositive control: 1000 nM; negative control: 0.1% DMSO Table 1. Reagents and consumables\n• 1. […] Cell seeding • (1) The cell culture medium was discarded, and the cells were washed once with DPBS, digested with trypsin, and counted to prepare a cell suspension of […]. • (2) 25 µL/well of cell suspension was added to the assay plate containing the test compound using Multidrop Combi at medium speed. • (3) The assay plate containing cells was returned to an incubator with 5% CO2 at 37°C and incubated for 16 to 18 hours.\n• (1) 25 µL/well of assay reagent (NanoGlo lysis buffer + substrate + LgBit protein) was added to the assay plate using Multidrop Combi at high speed, and the plate was shaken for 10 minutes. • (2) The plate was centrifuged at 2000 rpm for 1 minute to remove air bubbles. • (3) The plate was read on Envision using US Luminescence detection method.\nThe degradation rate (DR) of the test compound was calculated using the following formula: DR (%) = (RLU vehicle control - RLU compound) / (RLU vehicle control - RLU positive control) * 100%, where the vehicle control served as the blank control. […]"}, "IKZF3": {"biological_target": "T3, IKZF3 (Homo sapiens, UniProt Q96SW2+Q9UKT9)", "T3 construct": "expression levels of IKZF1 and IKZF3 proteins in MM.1S cells; host or cells: MM.1S cells", "T3 sequence (Q9UKT9 whole entry)": "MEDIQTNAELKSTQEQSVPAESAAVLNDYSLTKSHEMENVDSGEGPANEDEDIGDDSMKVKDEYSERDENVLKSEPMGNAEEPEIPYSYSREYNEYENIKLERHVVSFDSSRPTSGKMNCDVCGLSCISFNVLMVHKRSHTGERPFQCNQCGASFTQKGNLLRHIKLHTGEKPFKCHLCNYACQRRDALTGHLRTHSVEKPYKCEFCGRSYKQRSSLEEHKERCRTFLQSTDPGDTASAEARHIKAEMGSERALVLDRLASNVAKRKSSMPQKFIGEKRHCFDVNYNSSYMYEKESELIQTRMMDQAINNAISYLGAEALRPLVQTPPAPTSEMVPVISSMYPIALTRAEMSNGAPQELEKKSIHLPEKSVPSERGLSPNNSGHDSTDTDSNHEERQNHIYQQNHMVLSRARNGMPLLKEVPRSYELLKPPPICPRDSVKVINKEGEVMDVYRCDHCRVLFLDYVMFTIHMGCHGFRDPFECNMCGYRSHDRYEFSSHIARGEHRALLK", "T3 sequence (Q96SW2 whole entry)": "as the sequence (Q96SW2 whole entry) above", "T3 sequence (Q16531 whole entry partner)": "as the sequence (Q16531 whole entry partner) above", "assay": "In cell western analysis of IKZF3 protein expression level in MM.1S cells", "conditions": "IKZF3, MM.1S cells, 24 hours", "description": "as §1, §2, §3, §4, §5"}}, "note": "Where a name gives a salt, the structure may show the parent alone."}
{"compound": "O=C1CCC(c2noc3ccc4c(NC(=O)CN5CCN(C[C@H]6CC[C@H](n7cc(NC(=O)c8coc(-c9ccnc(NCC%10CC%10)c9)n8)c(C(F)F)n7)CC6)CC5)cccc4c23)C(=O)N1", "note": "(stereo partly drawn) [Hydrochloride of Compound of Formula (I)]", "values": [{"measurement": "DC50", "setting": "IKZF1", "result": 0.0234, "unit": "µM"}, {"measurement": "DC50", "setting": "IRAK4", "result": 0.00487, "unit": "µM"}, {"measurement": "DC50", "setting": "IKZF3", "result": 0.0206, "unit": "µM"}]}
